Laboratory results as given in patent US5122448A, “Assay of anti-Epstein-Barr virus nuclear antigen antibodies with synthetic polypeptides” (Scripps Clinic and Research Foundation, priority 1990, dated 1992).
Like-named read-outs stand apart in the source and are kept apart here. Residues, ends and D or L forms follow the SMILES beside them.

What was measured:
[1] = system: rabbit anti-polypeptide antibody to polypeptide P62; experiment: Competition ELISA with rabbit anti-polypeptide P62 antibody on solid phase P62; type: binding; conditions: antibody first incubated with competing polypeptide
Method: (§1) Anti-peptide antibody binding and inhibition studies were carried out by an enzyme-linked immunosorbent assay (ELISA) as described below.
(§2) Contact between the wells and antigen-containing solution was maintained for a predetermined time, typically 15 minutes, and at 20 degrees C., to form an antigen-coated solid phase. The solid and liquid phases were separated and the wells were washed three times with BBS.
(§3) Rabbit and human sera (body sample aliquots) were assayed for anti-polypeptide activity by adding 100 microliters of a serum diluted 1:20 in BBS per well to form a solid/liquid phase composition. Contact between the diluted sera and the antigen-coated solid phase was maintained for a predetermined time such as 1 hour, and at 20 degrees C., for an immunoreactant to form. The solid and liquid phases were separated, and the solid phase; i.e., antigen-coated, immunoreactant-containing wells, was then washed three times with BBS.

[2] = target: human anti-EBNA antibodies; experiment: ELISA: inhibition of serum antibody binding to solid phase P62 by competing polypeptide in solution
Method: as §1, §2, §3

[3] = system: antibodies to EBNA-1 and autoantigens; conditions: cited from earlier work
[4] = system: EBNA; experiment: Immunoblot of WI-L2 whole cell extracts with rabbit antipeptide antisera, blocking by polypeptide; type: binding, Epstein-Barr virus; conditions: serum 1:10, 40 ug/ml polypeptide P62, one hour
Method: Exemplary receptor molecules containing antibody combining sites of this invention raised in rabbits to the polypeptides shown in Table 1 were studied using the immunoblotting procedures of Towbin, et. al., Proc. Natl. Acad. Sci., U.S.A., 76:4350-4354 (1979) and Billings, et. al., Proc. Natl. Acad. Sci., U.S.A., 80:7104-7108 (1983). Further details are provided in the Materials and Methods section (III).
Extracts of EBNA producing and non-producing (control) cells were prepared to determine if receptor molecules of this invention were useful for diagnosing EBNA expression. Cells from cultures described hereinabove were washed in phosphate-buffered saline (PBS; 150 mM NaCl, 10 mM sodium phosphate, pH 7.4) containing 0.2 mM phenylmethylsulfonyl fluoride, swollen for 5 minutes in reticulocyte standard buffer (RSB; 10 mM NaCl, 10 mM Tris-HCl, pH 7.4, 1.5 mM MgCl2, 0.2 mM phenylmethylsulfonyl fluoride), and lysed by sonication in 3-5 volumes of RBS adjusted to 0.2-0.35 molar (M) NaCl. After 30 minutes on ice, the sonicate was centrifuged at 10,000×g for 15 minutes to remove cellular debris.
Cell extracts obtained above were assayed for EBNA using human sera known to contain anti-EBNA antibodies or exemplary receptor molecules of this invention. The extracts were either concentrated by precipitation with 2 volumes of ethanol at -20 degrees C. for about 18 hours, and were then dissolved in sample buffer [SB; 10% glycerol, 2% 2-mercaptoethanol, 1% sodium dodecyl sulfate (SDS), 0.002% bromphenol blue, 40 mM Tris-HCl (pH 7.4)] or diluted 1:6 in sample buffer for SDS-polyacrylamide gel electrophoresis (SDS-PAGE). 7.5% Polyacrylamide gels were cast and run according to the procedure of Laemmli, Nature, […] (1970), applying 50 to 200 micrograms of total protein per lane. […]
Anti-peptide antibodies bound to EBNA protein were detected by reacting the blots with an indicating means. […]

[5] = system: IgM and IgG antibodies to EBNA-1 and cellular proteins of Wi-L2 cells
Method: In an alternative procedure, the cellular protein-containing extracts were loaded onto one 13-cm-wide slot of a 7.5 percent acrylamide gel and electrophoresed. The contents of the electrophoresed gel were transferred to nitrocellulose as previously described [Billings et al., Proc. Natl. Acad. Sci. USA, 80:7104-7108 (1983); Rumpold et al., J. Immunol., 138:593-599 (1987); Rhodes et al., J. Exp. Med., 165:1026-1040 (1987)]. Sera were diluted 1:20 or 1:50 in a powdered milk (PM) buffer (3 percent powered milk in 0.05 M borate, 0.15 M NaCl, pH 8.3), and contacted with the strip for 1 hour at room temperature to immunoreact antibodies in the sera with the proteins.
128:593-599 (1987); Rhodes et al., in Herpesvirus, R. Rapp ed., Alan R. Liss, New York; p. […] 154:885-889 (1986); Geltosky et al., J. Clin. Lab Analysis, 1:153-162 (1987); and Rhodes et al., J. Exp. Med., 165:1026-1040 (1987)] and bands were detected by autoradiography as described before.
Synthetic peptide inhibitions were performed by diluting the sera 1:50 in PM and adding free peptide to a final concentration of 400 ug/ml to inhibit IgM antibody and 20 to 50 ug/ml to inhibit IgG antibody. This solution was maintained (incubated) overnight at 4 degrees C. and then used to blot as described above.

[6] = system: anti-EBNA antibodies (IgM, IgG); conditions: 405 nanometer
Excerpt: To differentiate the class of immunoglobulin predominantly responsible for an individual's immune response at a given time during the course of infectious mononucleosis, secondary (indicating) antibodies specific for human IgG or IgM were used in the ELISA as described in the Methods and Materials section (III).
Briefly, microtiter wells (Costar, #3590, Cambridge, MA) were typically coated with individual polypeptides as antigens by adding 100 microliters (ul) of BBS [10 millimoler (mM) sodium borate (pH 8.3), 150 mM NaCl] containing polypeptide at a concentration of 10 micrograms per milliliter (ug/ml). Contact between the wells and antigen-containing solution was maintained for a predetermined time, typically 15 minutes, and at 20 degrees C., to form an antigen-coated solid phase. The solid and liquid phases were separated and the wells were washed three times with BBS.
Non-specific binding sites were blocked by admixing 200 microliters of 1% bovine serum albumin (BSA) in each well to form another solid/liquid phase admixture, and maintaining that solid/liquid phase admixture for 30 minutes, at 20 degrees C. The phases were separated and excess, unbound BSA was removed by washing three times with BBS.
The antibodies in human sera that immunoreacted with an adsored polypeptide were detected using an indicating means comprising alkaline phosphatase-conjugated goat anti-human Ig antibody (Tago, Burlington, Calif.). The antibodies in rabbit sera that immunoreacted with an adsorbed polypeptide were detected using an indicating means comprising alkaline phosphatase-conjugated goat anti-rabbit Ig antibody (Kirkegard & Perry Laboratories, Inc., Gaithersburg, MD). In either instance, 100 microliters of the indicating antibody diluted 1:300 in BBS were added per well to form a further solid/liquid phase composition. This solid-liquid phase composition was maintained for a predetermined time, one hour, for the formation of a reaction product between the human antibodies bound to the solid phase and the indicating means, and at 20 degrees C. The phases were separated, and the solid phase was washed 3 times with BBS.
Alkaline phosphatase-conjugated antibody bound to polypeptide specific antibody was detected by spectrophotometrically measuring the enzymatic hydrolysis of p-nitrophenyl phosphate to p-nitrophenol. Briefly, 100 microliters of p-nitrophenyl phosphate [1 milligram per milliliter in 2 mM MgCl 2, (pH 9.8), 50 mM sodium carbonate] were added to each well. The enzymatic reaction was allowed to proceed 1 hour and then the optical density at 405 nm was determined in a [sequence] spectrophotometer available from Flow Laboratories, Inglewood, Calif.

[7] = Patient 15, 1 Month after infection
[8] = Patient 15, 1 Week after infection
[9] = Patient 15, 3 Months after infection
[10] = Patient 15, 12 Months after infection
[11] = Patient 15, 21 Months after infection
[12] = Patient three, 1 Month after infection
[13] = Patient three, 1 Week after infection
[14] = Patient three, 3 Months after infection
[15] = Patient three, 21 Months after infection

C[C@H](N)C(=O)NCC(=O)N[C@@H](C)C(=O)NCC(=O)NCC(=O)NCC(=O)N[C@@H](C)C(=O)NCC(=O)NCC(=O)N[C@@H](C)C(=O)NCC(=O)N[C@@H](C)C(=O)NCC(=O)NCC(=O)NCC(=O)N[C@@H](C)C(=O)NCC(=O)NCC(=O)N[C@@H](C)C(=O)NCC(=O)O [Polypeptide P62, H--Ala--Gly--Ala--Gly--Gly--Gly--Ala--Gly--Gly--Ala--Gly--Ala--Gly--Gly--Gly--Ala--Gly--Gly--Ala--Gly--OH] (H-AGAGGGAGGAGAGGGAGGAG-OH)
Inhibition of binding of anti-polypeptide P62 to polypeptide P62 in the solid phase [1]: 98% | Concentration of Competing Polypeptides Providing 50% Inhibition of Antibody Binding to Peptide P62 ([2]; serum N6): 0.6 micrograms per milliliter | Concentration of Competing Polypeptides Providing 50% Inhibition of Antibody Binding to Peptide P62 ([2]; serum TJ): 0.05 micrograms per milliliter | Concentration of Competing Polypeptides Providing 50% Inhibition of Antibody Binding to Peptide P62 ([2]; serum VM): 0.3 micrograms per milliliter | Immunoreactivity with sera from patients with acute EBV infection [3]: most immunoreactive | Inhibition of IgG antibodies to EBNA-1 [3]: can also be inhibited | Recognition of EBNA by anti-P62 serum after preincubation with polypeptide [4]: inhibited | Inhibition of IgM antibody binding to protein bands ([5]; acute EBV-IM sera 1:50, 400 ug/ml peptide): inhibited IgM antibody binding to several protein bands | Inhibition of IgG binding to EBNA-1 band at 77 kD ([5]; convalescent and normal sera, 50 ug/ml peptide): inhibited by the peptide in all cases | Inhibition of IgM reactivities with 82-77 kD and 58 to 62 kD bands ([5]; patient four. 12 days after onset of CMV illness, 400 ug/ml peptide): inhibited | IgG antipeptide activity [6, 7]: 118 Optical density | IgM antipeptide activity [6, 7]: 225 Optical density | IgG antipeptide activity [6, 8]: 113 Optical density | IgM antipeptide activity [6, 8]: 152 Optical density | IgG antipeptide activity [6, 9]: 118 Optical density | IgM antipeptide activity [6, 9]: 208 Optical density | IgG antipeptide activity [6, 10]: 375 Optical density | IgM antipeptide activity [6, 10]: 249 Optical density | IgG antipeptide activity [6, 11]: 994 Optical density | IgM antipeptide activity [6, 11]: 185 Optical density | IgG antipeptide activity [6, 12]: 37 Optical density | IgM antipeptide activity [6, 12]: 87 Optical density | IgG antipeptide activity [6, 13]: 80 Optical density | IgM antipeptide activity [6, 13]: 245 Optical density | IgG antipeptide activity [6, 14]: 60 Optical density | IgM antipeptide activity [6, 14]: 136 Optical density | IgG antipeptide activity [6, 15]: 600 Optical density | IgM antipeptide activity [6, 15]: 145 Optical density | IgG antipeptide activity ([6]; Patient three, Pre Infection): 74 Optical density | IgM antipeptide activity ([6]; Patient three, Pre Infection): 103 Optical density
